For one data set, the system named is breast cancer cell lines. Nature of the data set: NCI60 Human Tumor Cell Lines Screen, breast cancer lines. The settings on record: most of the breast cancer cell lines, read-out: Percentage of Growth Inhibition (PGI). The data set is classed as cell-based. As for the experimental part: (§1) The in vitro anti-cancer screening was performed through the NCI60 Human Tumor Cell Lines Screen, provided by the Developmental Therapeutics Program of the National Cancer Institute (NCI, Bethesda, United States). A single dose of 10 µM of each compound is tested in the whole NCI60 cell panel. More details about the NCI60 screen methods are reported on the NCI website (https://dtp.cancer.gov ).

Another data set relates to OVCAR-4. Put plainly: NCI60 Human Tumor Cell Lines Screen, OVCAR-4. Type of data set: cell-based. The settings on record: OVCAR-4 ovarian cancer cell line, read-out: Percentage of Growth Inhibition (PGI). On the procedure:
as §1

A further data set deals with SK-MES 1 cells. Put plainly: Apoptosis assay (Annexin V/PI, flow cytometry). The note with it: 96 h. The data set is classed as cell-based, human. As for the experimental part:
3b compound was selected as lead and employed in our assay. Human lung cancer cells (SK-MES 1) were seeded at the density of 8 × 10^5 cells/ml in 6-well plates (Corning, United States) with a complete medium (described in cell culture section). After overnight incubations, the cells were treated with or without different concentrations of 3b for 96 h. Cells were then labeled with Annexin V and PI as previously described ([Ibba et al., 2021]). Stained cells were then analyzed by flow cytometry, measuring the fluorescence emission at 530 and 620 nm using 488 nm excitation laser (MoFloAstrios EQ, Beckman Coulter). Cell apoptosis was analyzed using Software Summit Version 6.3.1.1, Beckman Coulter.

Data set [1] deals with panel of 60 human tumor cell lines. Put plainly: NCI60 Human Tumor Cell Lines Screen, whole panel. Type of data set: cell-based. The settings on record: 10 μM, of the 60 cell lines. On the procedure:
as §1

Data set [2] in a line: Antiproliferative assay (MTT), CRL 7065 control fibroblasts. The data set is classed as cell-based, human. As for the experimental part:
(§2) Cell lines were purchased from American Type Culture Collection (ATCC). The absence of mycoplasma contamination was checked periodically by the Hoechst staining method. Exponentially growing leukemia and lymphoma cells were seeded at 1 × 10^5 cells/ml in 96 well plates in RPMI-1640 medium, supplemented with 10% fetal bovine serum, 100 units/ml penicillin G, and 100 μg/ml streptomycin, and incubated at 37°C in a humidified, 5% CO2 atmosphere in the absence or presence of serial dilutions of test compounds. Cell viability was determined after 96 h at 37°C by the 3-(4,5-dimethylthiazol-2-yl)-2,5-diphenyl-tetrazolium bromide (MTT) method. Activity against solid-tumor derived cells was evaluated in exponentially growing cultures seeded at 5 × 10^4 cells/ml and allowed to adhere for 16 h to culture plates before the addition of the drugs. Cell viability was determined by the MTT method 4 days later. Vincristine and doxorubicin were used as reference drugs.
(§3) The extent of cell growth/viability and viral multiplication, at each drug concentration tested, were expressed as percentage of untreated controls. Concentrations resulting in 50% inhibition (CC50 or EC50) were determined by linear regression analysis.

The test system of the next data set is SK-MEL28. Put plainly: Antiproliferative assay (MTT), SK-MEL28. Type of data set: cell-based. The note with it: Homo sapiens, SK-MEL-28, 96 h, read-out: CC50 SK-MEL28. On the procedure:
as §2, §3

A further data set deals with DU145. Nature of the data set: Antiproliferative assay (MTT), DU145. The settings on record: Homo sapiens, DU-145, 96 h, read-out: CC50 DU145. The data set is classed as cell-based. As for the experimental part:
as §2, §3

The next data set concerns WIL-2NS. Nature of the data set: Antiproliferative assay (MTT), WIL-2NS. Type of data set: cell-based. The settings on record: Homo sapiens, WIL2-NS, 96 h, read-out: CC50 WIL-2NS. On the procedure:
as §2, §3

For another data set, the system named is HeLa. Put plainly: Antiproliferative assay (MTT), HeLa. The note with it: Homo sapiens, 96 h, read-out: CC50 HeLa. The data set is classed as cell-based. As for the experimental part: as §2, §3
In the next data set the test system is CCRF-CEM. Put plainly: Antiproliferative assay (MTT), CCRF-CEM. Type of data set: cell-based, human. The note with it: for CC50: Homo sapiens, CCRF-CEM, 96 h, read-out: CC50 CCRF-CEM. As for the experimental part:
as §2, §3

A further data set relates to CCRF-SB. Nature of the data set: Antiproliferative assay (MTT), CCRF-SB. The data set is classed as cell-based. The note with it: Homo sapiens, 96 h, read-out: CC50 CCRF-SB. On the procedure:
as §2, §3

In data set [3] the test system is prostate cancer cell lines. Put plainly: NCI60 Human Tumor Cell Lines Screen, prostate cancer lines. The data set is classed as cell-based. The note with it: the two prostate cancer cell lines. On the procedure:
as §1

For the next data set, the system named is SK-MES1. Nature of the data set: Antiproliferative assay (MTT), SK-MES1. Type of data set: cell-based. The settings on record: Homo sapiens, SK-MES-1, 96 h, read-out: CC50 SK-MES1. As for the experimental part:
as §2, §3

A short description of data set [4]: Cytotoxicity in Vero-76 cell-line (MTT). The data set is classed as cell-based. The note with it: monkey (Cercopithecus aethiops), Vero-76 cells (mock-infected), mock-infected Vero-76 cells. As for the experimental part: Vero-76 cells were seeded in 96-well plates at an initial density of 5 × 10^5 cells/ml, in Dulbecco’s Modified Eagle Medium (D-MEM) with L-glutamine and 25 mg/L kanamycin, supplemented with 10% FBS. Cell cultures were then incubated at 37°C in a humidified and 5% CO2 atmosphere, in the absence or presence of serial dilutions of test compounds. The test medium used for the cytotoxic assay as well as for antiviral assay contained 1% of the appropriate serum. Cell viability was determined after 48–96 h at 37°C by MTT method for Vero-76 ([Pauwels et al., 1988]).
as §3

A further data set deals with Poliovirus type-1 (Sb-1). Nature of the data set: microbe, parasite or virus in culture. The data set is classed as cell-based. The settings on record: Enterovirus C, Vero 76, read-out: EC50, plaque reduction Sb-1.
The test system of data set [5] is Coxsackievirus B5 (CV-B5). Nature of the data set: Plaque reduction assay, CV-B5 in Vero-76 monolayers. The data set is classed as cell-based. The settings on record: Enterovirus B.
The mark [6] stands for this setting: MTT, human foreskin fibroblasts, non-tumor control, read-out: CC50 CRL 7065.

Read-outs that look alike come from different tables or passages of the source.

As to `O=C(CCCC(=O)Nc1ccc(-n2nnc3cc(Cl)c(Cl)cc32)cc1)Nc1ccc(-n2nnc3cc(Cl)c(Cl)cc32)cc1` [Compound 3b, N ^1,N ^5-Bis(4-(5,6-Dichloro-1H-Benzo[d][1,2,3]Triazol-1-yl)phenyl)glutaramide], the inhibition at 10 µM with breast cancer cell lines was 48 to 81%; with OVCAR-4 it was 106%; in [3] (Homo sapiens, read-out: Percentage of Growth Inhibition (PGI)), 80%. Further, the entries for the “% Early apoptotic cells” value in the data set on SK-MES 1 cells (7μM) and with SK-MES 1 cells (20μM) were 21.4 ± 12.32% and 28.5 ± 4.63%, respectively. Also, the “% Late apoptotic cells” value in the data set on SK-MES 1 cells (7μM) worked out at 10.5 ± 0.67%; in the data set with SK-MES 1 cells (20μM), 11.1 ± 2.08%. Besides, the “% Live cells” value came out at 63.8 ± 1.1% with SK-MES 1 cells (7μM) and 54.8 ±4.9% with SK-MES 1 cells (20μM). Besides, the “% Necrotic cells” value with SK-MES 1 cells (7μM) is listed as 4.3 ± 0.74%; in the data set with SK-MES 1 cells (20μM), 5.6 ±1.74%. The apoptotic cells in the data set on SK-MES 1 cells (7 µm) came out at 32%; in the data set on SK-MES 1 cells (20 µm), 40%. Besides, the “number of cell lines with PGI higher than 50%” value in data set [1] was found to be 29. The CC50 at 96 h in [2] (setting [6]) stood at 0.75 ± 0.05 µM. In addition, the CC50 in the data set with SK-MEL28 was 6.2 ± 1.3 µM; in the data set with DU145, 5.1 µM; in the data set with WIL-2NS, above 100 µM; with HeLa, 7.1 ± 2.7 µM; in the data set on CCRF-CEM it was 0.5 ± 0.1 µM; with CCRF-SB, 0.35 ± 0.07 µM. The CC50 in the data set with SK-MES1 was 6.8 ± 3.5 µM. In addition, the “Percentage of Growth Inhibition (PGI)” value in data set [3] (10 μM) is given as 66%.

Regarding `O=C(/C=C/C(=O)Nc1ccc(-n2nnc3cc(Cl)c(Cl)cc32)cc1)Nc1ccc(-n2nnc3cc(Cl)c(Cl)cc32)cc1` [Compound 3d, N ^1 ,N ^4-Bis(4-(5,6-Dichloro-1H-Benzo[d][1,2,3]Triazol-1-yl)phenyl)fumaramide], the melting point was above 300 °C. Besides, the CC50 at 96 h in data set [2] (setting [6]) amounted to 0.37 ± 0.04 µM. The half-maximal cytotoxic concentration (CC50) with SK-MEL28 is above 100 µM. In addition, the CC50 with DU145 was above 100 µM. Further, the CC50 in the data set on WIL-2NS is above 100 µM. Also, the CC50 with HeLa is above 100 µM. The CC50 with CCRF-CEM stood at 0.07 ± 0.02 µM. Besides, the “selectivity index (SI)” value in the data set on CCRF-CEM (ratio of CC50 of non-tumor cells (CRL 7065) and CC50 of tumor cells (CCRF-CEM)) is recorded as 5.3. Besides, the CC50 in the data set with CCRF-SB came out at 7.9 ± 0.9 µM. Further, the CC50 with SK-MES1 is above 100 µM.

As to `O=C(O)/C=C/C(=O)Nc1ccc(-n2nnc3cc(Cl)c(Cl)cc32)cc1` [Compound 4d, (E)-4-((4-(5,6-Dichloro-1H-Benzo[d][1,2,3]Triazol-1-yl)phenyl)amino)-4-oxobut-2-enoic Acid], the melting point lay in the range of 231 to 233 °C. This compound also returned a CC50 in data set [4] above 100 µM. Also, in [2] (setting [6]), the CC50 at 96 h came to 1.7 ± 0.1 µM. The 50% effective concentration (EC50) with Poliovirus type-1 (Sb-1) was above 100 µM. Moreover, in the data set on SK-MEL28, the 50% cytotoxic concentration (CC50) is above 100 µM. Also, in the data set with DU145, the CC50 was above 100 µM. Besides, the 50% cytotoxic concentration (CC50) in the data set with WIL-2NS turned out to be 64 ± 10 µM. In the data set with HeLa, the cytotoxic concentration (CC50) is above 100 µM. Besides, the CC50 in the data set with CCRF-CEM was 3.3 ± 1.7 µM. In data set [5], the 50% effective concentration (EC50) was 10 µM. Moreover, the cytotoxic concentration (CC50) with CCRF-SB worked out at 0.51 ± 0.13 µM. Further, the cytotoxic concentration (CC50) in the data set on SK-MES1 is above 100 µM.

The compound `O=C(CCCC(=O)Nc1ccc(Cn2nnc3cc(Cl)c(Cl)cc32)cc1)Nc1ccc(Cn2nnc3cc(Cl)c(Cl)cc32)cc1` [Compound 9b, N ^1,N ^5-Bis(4-((5,6-Dichloro-1H-Benzo[d][1,2,3]Triazol-1-yl)methyl)phenyl)Glutaramide] showed a melting point of 204 to 206 °C. In data set [4], this compound registered a 50% cytotoxic concentration (CC50) of 75 µM. For the same compound, in [2] (setting [6]), the CC50 at 96 h is 6.7 ± 2.4 µM. Also, the EC50 in the data set on Poliovirus type-1 (Sb-1) was above 75 µM. Moreover, the CC50 in the data set with SK-MEL28 was found to be 2.6 ± 0.7 µM. Further, the CC50 in the data set on DU145 came to 5.2 ± 0.4 µM. The CC50 with WIL-2NS was determined as 23 ± 7 µM. Further, the CC50 in the data set on HeLa turned out to be 5.4 ± 0.7 µM. In the data set with CCRF-CEM, the CC50 was 5.5 ± 1.8 µM. In [5], the midpoint of the response, the EC50, lay at 52 µM. The CC50 in the data set on CCRF-SB was 8.5 ± 3.2 µM. Also, the CC50 in the data set on SK-MES1 is 9.9 ± 3.1 µM.

The compound `COc1cccc2c1C(=O)c1c(O)c3c(c(O)c1C2=O)C[C@@](O)(C(=O)CO)C[C@@H]3O[C@H]1C[C@H](N)[C@H](O)[C@H](C)O1` [Doxorubicin, reference compound] registered a CC50 at 96 h in [2] (human) of 2 ± 0.2 µM. In addition, the CC50 in the data set with SK-MEL28 stood at 1.1 ± 0.2 µM; with DU145, 0.3 ± 0.1 µM; with WIL-2NS it was 0.06 ± 0.01 µM; in the data set with HeLa it was 1.8 ± 0.2 µM; in the data set with CCRF-CEM it was 0.02 ± 0.01 µM; in the data set on CCRF-SB, 0.03 ± 0.02 µM. Moreover, the CC50 with SK-MES1 was determined as 0.65 ± 0.05 µM.

Consider `CC[C@]1(O)C[C@H]2CN(CCc3c([nH]c4ccccc34)[C@@](C(=O)OC)(c3cc4c(cc3OC)N(C=O)[C@H]3[C@@](O)(C(=O)OC)[C@H](OC(C)=O)[C@]5(CC)C=CCN6CC[C@]43[C@@H]65)C2)C1` [Vincristine, reference compound], for which the CC50 at 96 h in data set [2] (setting [6]) was above 4 µM. The CC50 is above 4 µM in the data set with SK-MEL28; 0.02 ± 0.01 µM with DU145; 0.006 ± 0.002 µM in the data set with WIL-2NS; 0.05 ± 0.02 µM in the data set with HeLa; 0.003 ± 0.001 µM with CCRF-CEM; 0.003 ± 0.001 µM in the data set on CCRF-SB. The CC50 in the data set with SK-MES1 turned out to be 0.01 ± 0.02 µM.

Source of the values: publication PMC8129498, “Synthesis, Antitumor and Antiviral In Vitro Activities of New Benzotriazole-Dicarboxamide Derivatives” (Frontiers in Chemistry, 2021).
